Results from US11800874B2, “Composition comprising a selective herbicide and an algal extract, use of an algal extract for detoxifying plants subjected to treatment with a selective herbicide” (LABORATOIRES GOËMAR, priority 2014, dated 2023).
Like-named read-outs stand apart in the source and are kept apart here.

Columns and labels:
[1] = tested on: Conventional soybean; conditions: in vivo
Description: (§1) Conventional soybean (that is to say not genetically modified and therefore not resistant to glyphosate) was planted in a greenhouse and left to grow until the 5-leaf stage.
(§2) A control batch was also cultivated, onto which water was sprayed.

[2] = tested on: Glyphosate-resistant soybean; experiment: Phytotoxicity of spray treatments on glyphosate-resistant soybean (Example 1); conditions: 4 weeks after treatment
Description: Glyphosate-resistant soybean was planted in a greenhouse and left to grow until the 5-leaf stage. It was separated into different batches, which were each treated by spraying with the following different compositions:
as §2

[3] = tested on: Conventional soybean; conditions: in vivo; remark: listed apart in the source
Description: as §1, §2

Manganese-EDTA complex [Mn]
0%: Necrosed surface area [1] | Plants having a necrosed leaf [1] | Necrosed surface area ([2]; sprayed composition 0.25% w/v) | Plants having a necrosed leaf ([2]; sprayed composition 0.25% w/v) | Necrosed surface area ([2]; sprayed composition 0.5% w/v) | Plants having a necrosed leaf ([2]; sprayed composition 0.5% w/v) | Necrosed surface area [3] | Plants having a necrosed leaf [3]
